Laboratory results as given in article PMC11500415, “Chemical inhibition of stomatal differentiation by perturbation of the master-regulatory bHLH heterodimer via an ACT-Like domain” (Nature Communications, 2024).
Values joined by “and” are separate entries in the source; they are usually repeats but may differ in a detail not shown here. Identical values can stand only once. Like-named read-outs stand apart in the source and are kept apart here.

Molecular target: T1, MUTE_ACTL (Arabidopsis thaliana, UniProt Q9M8K6)
T1 construct: MUTE-ACTL (114-202); made in house; host or cells: E. coli BL21
T1 sequence (Q9M8K6 114-202): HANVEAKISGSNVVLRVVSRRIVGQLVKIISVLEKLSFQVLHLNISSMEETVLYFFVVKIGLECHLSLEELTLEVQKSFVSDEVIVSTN
Experiment: BLI direct binding
Parameters: species or system A. thaliana
Details: for Kd: read-out: KD
Excerpt: A. thaliana SCRM (1-494), ΔNSPCH (98-364), MUTE (1-202), ΔNFAMA (190-414), MUTEΔC (1-114), MUTER133A_R134A, MUTEE162A_E163A, MUTER133A_R134A_E162A_E163A, SCRM-ACTL (405-494), MUTE-ACTL (114-202), SPCH-ACTL (285-364), FAMA-ACTL (306-414), MUTE_ACTLR133A_R134A, MUTE_ACTLE162A_E163A, MUTE_ACTLR133A_R134A_E162A_E163A were cloned into pGEX-4T-1 vector with an N-terminal GST tag and a thrombin cleavage sequence. For protein expression, the constructs were transformed into E. coli strain BL21. For each transformant, a single colony was selected and incubated in 10 ml LB liquid media. The overnight-incubated E. coli suspensions were transferred to 1 L LB medium and incubated at 37 °C for around 2 h until the OD600 reached 0.4–0.6. The isopropyl β-D-1-thiogalactopyranoside ([…] of final concentration) was added to the cultures and the strains were incubated at 22 °C for a further 18 h. GST-fused proteins were purified using glutathione agarose resin. The soluble portion of the cell lysate was loaded onto a GST-Sepharose column. Nonspecifically bound proteins were removed by washing the column with 20 mM Tris pH 8.0, 200 mM NaCl. The bound GST-fused protein was eluted with 10 mm glutathione and 20 mM Tris pH 8.0, 200 mM NaCl. The GST-fused proteins were exchanged with phosphate-buffered saline buffer, and then the solution was treated with 50 μg of thrombin for 10–12 h at 16 ^οC. The GST portion of the protein was cleaved during thrombin digestion, and then the whole solution was reloaded onto the glutathione S-transferase column to obtain pure protein. The purified proteins were further purified by gel filtration on a Superdex-200 (GE) column using fast protein liquid chromatography and phosphate buffer (pH 7.2) as the eluent. The purity of the protein was checked by SDS-PAGE. For detailed lists of oligo DNA and plasmid information, see Supplementary Tables 5, 6, respectively.
The binding affinities of SCRM to MUTE / MUTER133A_R134A / MUTEE162A_E163A / MUTER133A_R134A_E162A_E163A in presence and absence of Stomidazolone (3) and its analogues (AYSJ1059 (5) and AYSJ1061 (6)), and Stomidazolone / AYSJ1059 / AYSJ1061 interactions with GST-tagged SCRM, MUTE, SPCH, FAMA, MUTE ΔACTL, MUTE_ACTL, SCRM_ACTL, SPCH_ACTL and FAMA_ACTL, MUTER133A_134A, MUTEE162A_E163A, MUTER133A_R134A_E162A_E163A were measured using the Octet Red96 system (ForteBio, Pall Life Sciences) following the manufacturer’s protocols. The optical probes coated with anti-GST were first loaded with 500 nM GST tagged proteins before kinetic binding analyses. The experiment was performed in 96-well plates maintained at 30 °C. Each well was loaded with 200 μL reaction volume for the experiment. The binding buffer used in these experiments contained 1× PBS supplemented with 2% DMSO, 0.02% Tween20. […] There was no binding of the analytes to the unloaded probes as shown by the control wells. Binding kinetics to all seven concentrations of the analytes were measured simultaneously using default parameters on the instrument. The data were analyzed using the Octet data analysis software. The association and dissociation curves were fit with the 1:1 homogeneous ligand model. The kobs (observed rate constant) values were used to calculate Kd, with steady-state analysis of the direct binding. See Supplementary Table 3 for details.

[1] = MUTE_ACTL on Anti-GST sensor, Stomid 6.25 µM, rep-1, rep-2
[2] = MUTE_ACTL on Anti-GST sensor, Stomid 12.5 µM, rep-1, rep-2
[3] = MUTE_ACTL on Anti-GST sensor, Stomid 25 µM, rep-1, rep-2
[4] = MUTE_ACTL on Anti-GST sensor, Stomid 50 µM, rep-1, rep-2
[5] = MUTE_ACTL on Anti-GST sensor, Stomid 100 µM, rep-1, rep-2
[6] = MUTE_ACTL on Anti-GST sensor, Stomid 200 µM, rep-1, rep-2

Q: Which “kobs” value [1] does the source give for `O=C1C(c2ccccc2)=NC(NS(=O)(=O)c2ccccc2)(c2ccccc2)N1S(=O)(=O)c1ccccc1` (stereo not drawn) [Stomidazolone] here?
A: 0.00155 s⁻¹ and 0.00133 s⁻¹

Q: What about the “kon” value [1] of the same compound?
A: 4070 M⁻¹ s⁻¹

Q: And the Kd [1]?
A: 11.9 µM

Q: And the RMax [2]?
A: 0.4 and 0.435

Q: What about the “Req/Rmax(%)” value [2] of the same compound?
A: 87.1% and 49%

Q: And the Response [2]?
A: 0.391 and 0.425

Q: And the “kon” value [2]?
A: 4070 M⁻¹ s⁻¹

Q: And the Kd [2]?
A: 11.9 µM

Q: What about the RMax [3] of the same compound?
A: 0.49 and 0.53

Q: And the “Req/Rmax(%)” value [3]?
A: 83.8% and 61.4%

Q: And the Response [3]?
A: 0.486 and 0.524

Q: And the “kobs” value [3]?
A: 0.00294 s⁻¹ and 0.00162 s⁻¹

Q: What about the “kon” value [3] of the same compound?
A: 4080 M⁻¹ s⁻¹

Q: What about the Kd [3] of the same compound?
A: 12 µM and 11.8 µM

Q: And the RMax [4]?
A: 0.545 and 0.565

Q: And the “Req/Rmax(%)” value [4]?
A: 71.3%

Q: What about the Response [4] of the same compound?
A: 0.535 and 0.563

Q: What about the Kd [4] of the same compound?
A: 11.9 µM and 11.8 µM

Q: And the RMax [5]?
A: 0.621 and 0.64

Q: What about the “Req/Rmax(%)” value [5] of the same compound?
A: 98.7%

Q: And the Response [5]?
A: 0.611 and 0.632

Q: What about the Kd [5] of the same compound?
A: 11.7 µM

Q: What about the RMax [6] of the same compound?
A: 0.63 and 0.655

Q: What about the “Req/Rmax(%)” value [6] of the same compound?
A: 100%

Q: What about the Response [6] of the same compound?
A: 0.625 and 0.645

Q: And the “kobs” value [6]?
A: 0.0329 s⁻¹ and 0.0251 s⁻¹

Q: And the Kd [6]?
A: 12 µM

Q: And the koff (read-out: kdis(1/s), BLI, sensor at Stomid 3.12 µM)?
A: 0.0481 s⁻¹

Q: What about the koff (read-out: kdis(1/s), BLI, sensor at Stomid 6.25 µM) of the same compound?
A: 0.0483 s⁻¹

Q: What about the koff (read-out: kdis(1/s), BLI, sensor at Stomid 12.5 µM) of the same compound?
A: 0.0485 s⁻¹

Q: What about the koff (read-out: kdis(1/s), BLI, sensor at Stomid 25 µM) of the same compound?
A: 0.0483 s⁻¹

Q: What about the koff (read-out: kdis(1/s), BLI, sensor at Stomid 50 µM) of the same compound?
A: 0.0485 s⁻¹

Q: What about the koff (read-out: kdis(1/s), BLI, sensor at Stomid 100 µM) of the same compound?
A: 0.0491 s⁻¹

Q: What about the koff (read-out: kdis(1/s), BLI, sensor at Stomid 200 µM) of the same compound?
A: 0.0486 s⁻¹

Q: And the koff (read-out: kdis(1/s), MUTE_ACTL on Anti-GST sensor, Stomid 6.25 µM, rep-1, rep-2)?
A: 0.0483 s⁻¹

Q: What about the koff (read-out: kdis(1/s), MUTE_ACTL on Anti-GST sensor, Stomid 12.5 µM, rep-1, rep-2) of the same compound?
A: 0.0485 s⁻¹

Q: And the koff (read-out: kdis(1/s), MUTE_ACTL on Anti-GST sensor, Stomid 25 µM, rep-1, rep-2)?
A: 0.0483 s⁻¹

Q: What about the koff (read-out: kdis(1/s), MUTE_ACTL on Anti-GST sensor, Stomid 50 µM, rep-1, rep-2) of the same compound?
A: 0.0485 s⁻¹

Q: And the kon (read-out: kon(1/Ms), BLI, sensor at Stomid 3.12 µM)?
A: 4110 M⁻¹ s⁻¹

Q: What about the kon (read-out: kon(1/Ms), BLI, sensor at Stomid 6.25 µM) of the same compound?
A: 4050 M⁻¹ s⁻¹

Q: What about the kon (read-out: kon(1/Ms), BLI, sensor at Stomid 12.5 µM) of the same compound?
A: 4070 M⁻¹ s⁻¹

Q: And the kon (read-out: kon(1/Ms), BLI, sensor at Stomid 25 µM)?
A: 4080 M⁻¹ s⁻¹

Q: What about the kon (read-out: kon(1/Ms), BLI, sensor at Stomid 50 µM) of the same compound?
A: 4070 M⁻¹ s⁻¹

Q: And the kon (read-out: kon(1/Ms), BLI, sensor at Stomid 100 µM)?
A: 4060 M⁻¹ s⁻¹

Q: And the kon (read-out: kon(1/Ms), BLI, sensor at Stomid 200 µM)?
A: 4040 M⁻¹ s⁻¹

Q: What about the kon (read-out: kon(1/Ms), MUTE_ACTL on Anti-GST sensor, Stomid 6.25 µM, rep-1, rep-2) of the same compound?
A: 4050 M⁻¹ s⁻¹

Q: What about the kon (read-out: kon(1/Ms), MUTE_ACTL on Anti-GST sensor, Stomid 12.5 µM, rep-1, rep-2) of the same compound?
A: 4050 M⁻¹ s⁻¹

Q: And the kon (read-out: kon(1/Ms), MUTE_ACTL on Anti-GST sensor, Stomid 25 µM, rep-1, rep-2)?
A: 4070 M⁻¹ s⁻¹

Q: What about the kon (read-out: kon(1/Ms), MUTE_ACTL on Anti-GST sensor, Stomid 50 µM, rep-1, rep-2) of the same compound?
A: 4070 M⁻¹ s⁻¹

Q: And the kon (read-out: kon(1/Ms), MUTE_ACTL on Anti-GST sensor, Stomid 100 µM, rep-1, rep-2)?
A: 4080 M⁻¹ s⁻¹

Q: And the kon (read-out: kon(1/Ms), MUTE_ACTL on Anti-GST sensor, Stomid 200 µM, rep-1, rep-2)?
A: 4070 M⁻¹ s⁻¹
